According to PMC11124822, “Discovery and Anticancer Screening of Novel Oxindole-Based Derivative Bearing Pyridyl Group as Potent and Selective Dual FLT3/CDK2 Kinase Inhibitor” (Pharmaceuticals, 2024):

What was measured:
UACC-62 = assay: NCI-60 antiproliferative screen (SRB); assay type: cell-based, human; settings: Homo sapiens; 10 µM single dose, 48 h; UACC-62 (Melanoma); read-out: Growth inhibition (%)
TK-10 = assay: NCI-60 antiproliferative screen (SRB); assay type: cell-based, human; settings: Homo sapiens; 10 µM single dose, 48 h; TK-10 (Renal); read-out: Growth inhibition (%)
SK-MEL-28 = assay: NCI-60 antiproliferative screen (SRB); assay type: cell-based, human; settings: Homo sapiens; 10 µM single dose, 48 h; SK-MEL-28 (Melanoma); read-out: Growth inhibition (%)
CCRF-CEM = assay: NCI-60 antiproliferative screen (SRB); assay type: cell-based, human; settings: Homo sapiens; 10 µM single dose, 48 h; CCRF-CEM (Leukemia); read-out: Growth inhibition (%)
UACC-257 = assay: NCI-60 antiproliferative screen (SRB); assay type: cell-based, human; settings: Homo sapiens; 10 µM single dose, 48 h; UACC-257 (Melanoma); read-out: Growth inhibition (%)
UO-31 = assay: NCI-60 antiproliferative screen (SRB); assay type: cell-based, human; settings: Homo sapiens; 10 µM single dose, 48 h; UO-31 (Renal); read-out: Growth inhibition (%)
NCI/ADR-RES = assay: NCI-60 antiproliferative screen (SRB); assay type: cell-based, human; settings: Homo sapiens; 10 µM single dose, 48 h; NCI/ADR-RES (Ovarian); read-out: Growth inhibition (%)
ACHN = assay: NCI-60 antiproliferative screen (SRB); assay type: cell-based, human; settings: Homo sapiens; 10 µM single dose, 48 h; ACHN (Renal); read-out: Growth inhibition (%)
IGROV1 = assay: NCI-60 antiproliferative screen (SRB); assay type: cell-based, human; settings: Homo sapiens, IGROV-1; 10 µM single dose, 48 h; IGROV1 (Ovarian); read-out: Growth inhibition (%)
COLO 205 = assay: NCI-60 antiproliferative screen (SRB); assay type: cell-based, human; settings: Homo sapiens; 10 µM single dose, 48 h; COLO 205 (Colon); read-out: Growth inhibition (%)
SNB-19 = assay: NCI-60 antiproliferative screen (SRB); assay type: cell-based, human; settings: Homo sapiens; 10 µM single dose, 48 h; SNB-19 (CNS); read-out: Growth inhibition (%)
MCF7 = assay: NCI-60 antiproliferative screen (SRB); assay type: cell-based, human; settings: Homo sapiens; 10 µM single dose, 48 h; MCF7 (Breast); read-out: Growth inhibition (%)
HOP-92 = assay: NCI-60 antiproliferative screen (SRB); assay type: cell-based, human; settings: Homo sapiens; 10 µM single dose, 48 h; HOP-92 (NSCLC); read-out: Growth inhibition (%)
RPMI-8226 = assay: NCI-60 antiproliferative screen (SRB); assay type: cell-based, human; settings: Homo sapiens; 10 µM single dose, 48 h; RPMI-8226 (Leukemia); read-out: Growth inhibition (%)
T-47D = assay: NCI-60 antiproliferative screen (SRB); assay type: cell-based, human; settings: Homo sapiens, T47D; 10 µM single dose, 48 h; T-47D (Breast); read-out: Growth inhibition (%)
SK-OV-3 = assay: NCI-60 antiproliferative screen (SRB); assay type: cell-based, human; settings: Homo sapiens; 10 µM single dose, 48 h; SK-OV-3 (Ovarian); read-out: Growth inhibition (%)
KM12 = assay: NCI-60 antiproliferative screen (SRB); assay type: cell-based, human; settings: Homo sapiens; 10 µM single dose, 48 h; KM12 (Colon); read-out: Growth inhibition (%)
SK-MEL-5 = assay: NCI-60 antiproliferative screen (SRB); assay type: cell-based, human; settings: Homo sapiens; 10 µM single dose, 48 h; SK-MEL-5 (Melanoma); read-out: Growth inhibition (%)
RXF 393 = assay: NCI-60 antiproliferative screen (SRB); assay type: cell-based, human; settings: Homo sapiens; 10 µM single dose, 48 h; RXF 393 (Renal); read-out: Growth inhibition (%)
MDA-MB-231 = assay: NCI-60 antiproliferative screen (SRB); assay type: cell-based, human; settings: Homo sapiens; 10 µM single dose, 48 h; MDA-MB-231 (Breast); read-out: Growth inhibition (%)
OVCAR-4 = assay: NCI-60 antiproliferative screen (SRB); settings: Homo sapiens, OVCAR-4, 48 h, read-out: Growth inhibition (%)
NCI-H460 = assay: NCI-60 antiproliferative screen (SRB); assay type: cell-based, human; settings: Homo sapiens; 10 µM single dose, 48 h; NCI-H460 (NSCLC); read-out: Growth inhibition (%)
NCI-H522 = assay: NCI-60 antiproliferative screen (SRB); assay type: cell-based, human; settings: Homo sapiens; 10 µM single dose, 48 h; NCI-H522 (NSCLC); read-out: Growth inhibition (%)
M14 = assay: NCI-60 antiproliferative screen (SRB); assay type: cell-based, human; settings: Homo sapiens; 10 µM single dose, 48 h; M14 (Melanoma); read-out: Growth inhibition (%)
OVCAR-5 = assay: NCI-60 antiproliferative screen (SRB); assay type: cell-based, human; settings: Homo sapiens; 10 µM single dose, 48 h; OVCAR-5 (Ovarian); read-out: Growth inhibition (%)
SR = assay: NCI-60 antiproliferative screen (SRB); settings: Homo sapiens, 48 h, read-out: Growth inhibition (%)
Procedure: Anticancer activity was tested against 60 cancer cell lines (NCI-60) after 48h treatments with a single dosage of 10 μM of compounds by using sulforhodamine B assay [39] on the traditional 96-well platform. […] The human cancer cell lines of the NCI-60 panel are grown in RPMI 1640 medium supplemented with 5% FBS (fetal bovine serum) and 2 mM L-glutamine. […] For further analysis of promising compounds, five dose screens were performed against the NCI-60 panel. Drug treatments are performed in 5 doses using 10-fold or ½ log dose dilutions.

EKVX = assay: NCI-60 antiproliferative screen (SRB); assay type: cell-based, human; settings: Homo sapiens; 10 µM single dose, 48 h; EKVX (NSCLC); read-out: Growth inhibition (%)
A498 = assay: NCI-60 antiproliferative screen (SRB); assay type: cell-based, human; settings: Homo sapiens; 10 µM single dose, 48 h; A498 (Renal); read-out: Growth inhibition (%)
HOP-62 = assay: NCI-60 antiproliferative screen (SRB); assay type: cell-based, human; settings: Homo sapiens; 10 µM single dose, 48 h; HOP-62 (NSCLC); read-out: Growth inhibition (%)
SF-268 = assay: NCI-60 antiproliferative screen (SRB); assay type: cell-based, human; settings: Homo sapiens; 10 µM single dose, 48 h; SF-268 (CNS); read-out: Growth inhibition (%)

O=C1Nc2ccc(Cl)cc2C1=Cc1ccc(OCc2ccncc2)cc1 (mixture of isomers) [Compound 5o, (E/Z)-5-Chloro-3-[4-(pyridin-4-ylmethoxy)benzylidene] indolin-2-one]
inhibition at 10 µM (UACC-62): 37.6%
inhibition at 10 µM (TK-10): 17.7%
inhibition at 10 µM (SK-MEL-28): 14.5%
inhibition at 10 µM (CCRF-CEM): 53.9%
inhibition at 10 µM (UACC-257): 23.7%
inhibition at 10 µM (UO-31): 51.1%
inhibition at 10 µM (NCI/ADR-RES): 67.6%
inhibition at 10 µM (ACHN): 70.2%
inhibition at 10 µM (IGROV1): 84.7%
inhibition at 10 µM (COLO 205): 19.2%
inhibition at 10 µM (SNB-19): 73.8%
inhibition at 10 µM (MCF7): 92.8%
inhibition at 10 µM (HOP-92): 16.3%
melting point: 238 to 240 °C
inhibition at 10 µM (RPMI-8226): 70.5%
inhibition at 10 µM (T-47D): 61%
inhibition at 10 µM (SK-OV-3): 11.4%
inhibition at 10 µM (KM12): 60.6%
inhibition at 10 µM (SK-MEL-5): 62.6%
inhibition at 10 µM (RXF 393): 73.8%
inhibition at 10 µM (MDA-MB-231): 24.9%
inhibition at 10 µM (OVCAR-4): 47.3%
inhibition at 10 µM (NCI-H460): 57.8%
inhibition at 10 µM (NCI-H522): 86%
inhibition at 10 µM (M14): 33%
inhibition at 10 µM (OVCAR-5): -14.4%
inhibition at 10 µM (SR): 88.9%
inhibition at 10 µM (EKVX): 37.6%
inhibition at 10 µM (A498): 1.01%
inhibition at 10 µM (HOP-62): 19.7%
inhibition at 10 µM (SF-268): 55.7%
